Structures can show the parent of a compound that is named as a salt.
Assays:
[1] = tested on: male mice; experiment: Acute toxicity by intraperitoneal administration; assay type: in vivo, mouse; conditions: i.p.
Method: In the neuropsychopharmacological study which follows, a solution of CRL 41 153 in distilled water (pH 1.5) was administered intraperitoneally in a volume of 20 ml/kg to male mice and 5 ml/kg to male rats.

[2] = tested on: rats; experiment: Interaction with amphetamine; assay type: in vivo, rat; conditions: i.p.
Method: Amphetamine (2 mg/kg) is injected intraperitoneally into groups of 6 rats 30 minutes after the administration of CRL 41 153. […] 4 mg/kg and 16 mg/kg, CRL 41 153 potentiates the intensity and duration of the stereotypies induced by amphetamine.

[3] = tested on: mice; experiment: Asphyxiant anoxia (gallamine triiodoethylate); assay type: in vivo, mouse; conditions: i.p., curarizing agent
Method: Groups of 10 mice receive CRL 41 153 half an hour before the intraperitoneal administration of 32 mg/kg of gallamine triiodoethylate (reference curarizing agent).

[4] = tested on: mice; experiment: Behavioral despair; assay type: in vivo, mouse; conditions: forcibly immersed mice, i.p.
From the text: Half an hour after they have received CRL 41 153, groups of 6 mice are placed in a beaker filled with water to a height of 6 cm. The total period of immobility between the 2nd and 6th minutes following immersion is noted.

[5] = pH of solutions in distilled water; assay type: physicochemical; conditions: administered solution in distilled water, concentration not given
Method: The neuropsychopharmacological study was undertaken according to the procedures described above for CRL 41 153, CRL 41 213 being adminstered intraperitoneally, in solution in distilled water, in a volume of 20 ml/kg to male mice and a volume of 5 ml/kg to male rats, and the pH of the injected solution varying with the concentration of CRL 41 213 according to the data given in Table II below.

[6] = tested on: nigrostriatal dopaminergic system; experiment: Interaction with alpha-methyltyrosine on stereotypies (difference from amphetamine); conditions: α-methyltyrosine (catecholamine synthesis blocked)

In the case of `CC(C)NC(C)C(=O)c1ccc(N)cc1` (centres unmarked) [CRL 41 153, 1-(4-aminophenyl)-2-isopropylaminopropanone dihydrochloride], the “LD0 (maximum non-lethal dose)” value [1] is reported as “greater than 64 mg/kg”, the LD60 [1] is reported as “about 128 mg/kg” and the “Effect on stereotypies induced by amphetamine” value [2] is reported as “at doses of 1 mg/kg. 4 mg/kg and 16 mg/kg, CRL 41 153 potentiates the intensity and duration of the stereotypies induced by amphetamine”. For the same compound, the “Time taken for convulsions to occur” value [3] was “at a dose of 32 mg/kg, CRL 41 153 reduces the time taken for convulsions to occur”, the “Time taken for death to occur” value [3] was “does not change the time taken for death to occur” and the “Period of immobility due to despair” value [4] was “at doses greater than or equal to 0.5 mg/kg, CRL 41 153 reduces the period of immobility”. For the same compound, the pH [5] was 1.5 and the “Effect of alpha-methyltyrosine on the stereotypies induced by the substance” value [6] was “only reduces them”.

Source: patent US4980377A, “1-(aminophenyl)-2-aminopropanone derivatives” (Laboratoire L. Lafon, priority 1984, dated 1990)
